Source: patent US20250122144A1, “Compound and Molded Body Comprising Same” (LG Chem, Ltd., priority 2022, published 2025)

Assay: Evaluation of heat resistance by thermogravimetric analyzer (TGA), primary thermal decomposition temperature
Format: physicochemical
Details: N2 atmospheric environment, FIG. 9
Method: In this experiment, the evaluation of heat resistance was defined as an extrapolated intersection point (primary thermal decomposition temperature) between a starting mass reference line and the tangent line of the maximum slope point in the first mass reduction section of a mass loss curve measured by a thermogravimetric analyzer (TGA) in an N2 atmospheric environment.
In the present disclosure, it is determined that when the primary thermal decomposition temperature of the compound has a value higher than the primary thermal decomposition temperature of the material before anion substitution, the heat resistance has increased.

Td (thermal decomposition temperature) | heat resistance compared with the material before anion substitution | Compound
about 230 °C |  | C=C(C)C(=O)OCC[N+](C)(C)CCCCCCCCCC.[Br-] [Comparative Example 4-1]
 | heat resistance is improved | C=C(C)C(=O)OCC[N+](C)(C)CCCCCCCCCC.O=S(=O)([O-])O [Example 4-1]
